Reference: ChEMBL document CHEMBL4619770, “Comatulins A-E, Taurine-Conjugated Anthraquinones from the Australian Crinoid Comatula rotalaria” (J Nat Prod, 2020)
Active and inactive are the calls of the source. The calls are words filed in the database; no cut-off is given here.

How the values were obtained:
[1] = test system: Human immunodeficiency virus 1; experiment: Antiviral activity against HIV-1 assessed as reduction in viral replication; type: functional, organism-based
[2] = test system: Human immunodeficiency virus 1; experiment: Antiviral activity against HIV-1 assessed as reduction in viral replication at 0.1 uM; type: functional; parameters: scale not given: the % may be the effect or the level left
Haemonchus contortus [3] = experiment: Anti-helmintic activity against third-stage Haemonchus contortus larvae assessed as reduction in development of xL3 stage larvae to L4 stage at 100 uM after 7 days; type: functional, organism-based
[4] = test system: Human immunodeficiency virus 1; experiment: Antiviral activity against HIV-1 NL4.3 infected in CEM-GXR T cells assessed as reduction in viral replication after 72 hrs by flow cytometry; type: functional, organism-based; conditions: Human immunodeficiency virus 1, NL4.3, CEM-GXR
Haemonchus contortus [5] = experiment: Anti-helmintic activity against fourth stage L4 Haemonchus contortus larvae assessed as induction of changes in internal structure measured on day 7 by light microscopic method; type: functional, organism-based
Haemonchus contortus [6] = experiment: Anti-helmintic activity against third-stage Haemonchus contortus larvae assessed as reduction in development of xL3 stage larvae to L4 stage after 7 days; type: functional, organism-based; conditions: 168 h
Haemonchus contortus [7] = experiment: Anti-helmintic activity against third-stage Haemonchus contortus larvae assessed as reduction in larval motility after 72 hrs; type: functional, organism-based
Haemonchus contortus [8] = experiment: Anti-helmintic activity against fourth stage L4 Haemonchus contortus larvae assessed as induction of eviscerated phenotype measured on day 7 by light microscopic method; type: functional, organism-based
Haemonchus contortus [9] = experiment: Anti-helmintic activity against third-stage Haemonchus contortus larvae assessed as reduction in development of xL3 stage larvae to L4 stage at low concentration after 7 days; type: functional, organism-based
Haemonchus contortus [10] = experiment: Anti-helmintic activity against third-stage Haemonchus contortus larvae assessed as induction of eviscerated phenotype at 100 uM measured on day 7 by light microscopic analysis relative to control; type: functional

SMILES	EC50 [1] [µM]	further results
CC(C)(C)NC(=O)[C@@H]1CN(Cc2cccnc2)CCN1C[C@@H](O)C[C@@H](Cc1ccccc1)C(=O)N[C@H]1c2ccccc2C[C@H]1O.O [INDINAVIR]		Activity [2]: 72%
CCCC(=O)c1c(O)cc(O)c2c1C(=O)c1cc(OC)c(OC)c(O)c1C2=O	> 100	
CCCC(=O)c1c(O)cc(O)c2c1C(=O)c1cc(O)cc(O)c1C2=O	> 100	Activity (Haemonchus contortus [3]): Active
COc1cc(O)c2c(c1)C(=O)c1c(C(C)=O)c(O)cc(O)c1C2=O	> 100	
COc1cc(O)c2c(c1)C(=O)c1c(C(C)=O)c(O)c(CNCCS(=O)(=O)O)c(O)c1C2=O	> 100	
COc1cc(OC)c2c(c1)C(=O)c1c(C(C)=O)c(O)cc(O)c1C2=O	> 100	
CCCC(=O)c1c(O)cc(O)c2c1C(=O)c1cc(OC)cc(O)c1C2=O	> 100	
CCCc1cc(=O)c2c(OC)c(OC)c3cc(OC)cc(OC)c3c2o1	> 100	Activity (Haemonchus contortus [5]): Active; IC50 (Haemonchus contortus [6]): 31 µM; IC50 (Haemonchus contortus [7]): 30 µM; Activity (Haemonchus contortus [8]): inactive; Activity (Haemonchus contortus [9]): inactive; Activity (Haemonchus contortus [3]): Active; Activity (Haemonchus contortus [10]): 51%
O=C1c2cc(O)cc(O)c2C(=O)c2c(O)cc(O)cc21	> 100	
CCCC(=O)c1c(O)cc(O)c2c1C(=O)c1cc(OC)cc(OC)c1C2=O	> 100	

Now from value to compound, other results behind:

EC50 [1] [µM]	SMILES	further results
> 100	CCCc1cc(=O)c2c(O)c(OC)c3cc(O)cc(OC)c3c2o1	
> 100	CC(=O)c1c(O)cc(O)c2c1C(=O)c1cc(O)cc(O)c1C2=O	
> 100	CCCC(=O)c1c(O)c(CNCCS(=O)(=O)O)c(O)c2c1C(=O)c1cc(OC)cc(O)c1C2=O	
5.7	CCCc1cc(=O)c2c(O)cc3cc(O)cc(OC)c3c2o1 [COMAPARVIN]	EC50 [4]: 7.5 µM
